Measurements as given in patent US12410160B2 (Gilead Sciences, Inc., priority 2021, dated 2025).

Legend:
[1] = target: KHK-C expressed in NRK-52E cells (Homo sapiens (Human), UniProt P50053); assay: KHK-C Cell-based Assay (EC50), NRK CTG, fructose-mediated ATP-depletion
human KHK-C = human KHK-C (Homo sapiens (Human), UniProt P50053); assay: KHK Biochemical Assay (IC50), ADP-Glo, KHK-C; conditions: ADP-Glo; average of at least two separate assays
Method in brief: (§1)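 His-tagged enzyme expressed in BL21 (DE3), Ni-NTA purified. Compounds, serially diluted 1:3 in DMSO, pre-incubated 30 min with enzyme in 50 mM Hepes pH 7.4, 140 mM KCl, 5 mM MgCl2, 0.01% Triton-X, then ATP and fructose added; 4 h at room temperature. ADP formation read by ADP-Glo luminescence.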

human KHK-A = human KHK-A (Homo sapiens (Human), UniProt P50053); assay: KHK Biochemical Assay (IC50), ADP-Glo, KHK-A; conditions: ADP-Glo; average of at least two separate assays
Method in brief: as §1

Chain of KHK-C expressed in NRK-52E cells (P50053 whole entry): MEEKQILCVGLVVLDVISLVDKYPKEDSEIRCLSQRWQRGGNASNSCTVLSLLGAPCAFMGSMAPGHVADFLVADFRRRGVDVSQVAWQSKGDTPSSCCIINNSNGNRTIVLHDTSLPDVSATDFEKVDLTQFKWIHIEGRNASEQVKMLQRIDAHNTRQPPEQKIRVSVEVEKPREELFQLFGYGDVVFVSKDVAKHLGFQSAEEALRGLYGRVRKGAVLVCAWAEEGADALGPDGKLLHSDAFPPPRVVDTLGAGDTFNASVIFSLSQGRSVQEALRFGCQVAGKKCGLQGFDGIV
Chain of human KHK-C (P50053 whole entry): as above
Chain of human KHK-A (P50053 other isoform, or with tags, fused parts or gaps): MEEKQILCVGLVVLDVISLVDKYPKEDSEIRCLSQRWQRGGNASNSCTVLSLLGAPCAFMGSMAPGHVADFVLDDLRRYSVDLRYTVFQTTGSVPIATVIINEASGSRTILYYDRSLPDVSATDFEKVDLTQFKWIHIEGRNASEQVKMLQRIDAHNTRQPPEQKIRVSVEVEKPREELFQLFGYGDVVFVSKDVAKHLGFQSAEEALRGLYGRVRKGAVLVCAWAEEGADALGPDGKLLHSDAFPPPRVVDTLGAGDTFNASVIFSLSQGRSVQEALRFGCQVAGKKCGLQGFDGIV

Compound | EC50 [1] | IC50 (human KHK-C) | IC50 (human KHK-A)
C[C@H]1[C@H](O)CN1c1nc2c(c(-c3ccc(CN)cc3)n1)CCC2 [Example 202, (2S,3R)-1-[4-[4-(aminomethyl)phenyl]-6,7-dihydro-5H-cyclopenta[d]pyrimidin-2-yl]-2-methyl-azetidin-3-ol] | 111 nM | 7.7 nM | 9.8 nM
C[C@H]1[C@H](O)CN1c1nc2c(c(-c3ccc4c(c3)C(=O)N(C)C4)n1)CCC2 [Example 204] | 109 nM | 37.2 nM | 118 nM
C[C@H]1CCN1c1nc2c(c(-c3ccc4c(c3)C(=O)NC4)n1)CCC2 [Example 207] | 55.8 nM | 28.2 nM | 23.2 nM
C[C@H]1C[C@H](C)N1c1nc2c(c(-c3cccc(S(N)(=O)=O)c3)n1)CCC2 [Example 208, 3-[2-[(28,48)-2,4-dimethylazetidin-1-yl]-6,7-dihydro-5H-cyclopenta[d]pyrimidin-4-yl]benzenesulfonamide] | 36.4 nM | 46.6 nM | 36.7 nM
C[C@H]1[C@H](F)CN1c1nc2c(c(-c3cccc(S(N)(=O)=O)c3)n1)CCC2 [Example 210] | 38.2 nM | 19.7 nM | 17.6 nM
C[C@H]1CCN1c1nc(-c2ccccc2)c2c(ncn2C)n1 [Example 211, 7-methyl-2-[(2S)-2-methylazetidin-1-yl]-6-phenyl-purine] | > 50000 nM | 4760 nM | 7310 nM
C[C@H]1CCN1c1nc2c(c(-c3cnc(C(C)(C)O)s3)n1)CCC2 [Example 213, 2-[5-[2-[(2S)-2-methylazetidin-1-yl]-6,7-dihydro-5H-cyclopenta[d]pyrimidin-4-yl]thiazol-2-yl]propan-2-ol] | 52.5 nM | 33.3 nM | 52.6 nM
C[C@H]1CCN1c1nc2c(c(-c3cccc(C(=O)NCC(N)=O)c3)n1)CCC2 [Example 216, N-(2-amino-2-oxo-ethyl)-3-[2-[(2S)-2-methylazetidin-1-yl]-6,7-dihydro-5H-cyclopenta[d]pyrimidin-4-yl]benzamide] | 390 nM | 38.4 nM | 37.8 nM
C[C@H]1CCN1c1nc2c(c(-c3cccc(C(=O)NCCC(=O)O)c3)n1)CCC2 [Example 217, 3-[[3-[2-[(2S)-2-methylazetidin-1-yl]-6,7-dihydro-5H-cyclopenta[d]pyrimidin-4-yl]benzoyl]amino]propanoic acid] | > 5000 nM | 90.3 nM | 130 nM
C[C@H]1CCN1c1nc2c(c(-c3cccc(C(=O)NCCS(N)(=O)=O)c3)n1)CCC2 [Example 219, 3-[2-[(2S)-2-methylazetidin-1-yl]-6,7-dihydro-5H-cyclopenta[d]pyrimidin-4-yl]-N-(2-sulfamoylethyl)benzamide] | 283 nM | 13.1 nM | 17.2 nM
C[C@H]1CCN1c1nc2c(c(-c3cccc(C(=O)NCCC(N)=O)c3)n1)CCC2 [Example 220, N-(3-amino-3-oxo-propyl)-3-[2-[(2S)-2-methylazetidin-1-yl]-6,7-dihydro-5H-cyclopenta[d]pyrimidin-4-yl]benzamide] | 190 nM | 57.3 nM | 58.6 nM
C[C@H]1CCN1c1nc2c(c(-c3cnc(CN)s3)n1)CCC2 [Example 221, (S)-(5-(2-(2-methylazetidin-1-yl)-6,7-dihydro-5H-cyclopenta[d]pyrimidin-4-yl)thiazol-2-yl)methanamine] | 94.4 nM | 17.2 nM | 17.8 nM
C[C@H]1[C@@H](F)CN1c1nc2c(c(-c3ccc(C(N)=O)cc3)n1)CCC2 [Example 226] | 26.9 nM | 17.2 nM | 25.5 nM
C[C@H]1CCN1c1nc2c(c(-c3cccc(CNC(=O)CCO)c3)n1)CCC2 [Example 227, 3-hydroxy-N-[[3-[2-[(2S)-2-methylazetidin-1-yl]-6,7-dihydro-5H-cyclopenta[d]pyrimidin-4-yl]phenyl]methyl]propanamide] | 265 nM | 70.3 nM | 75.6 nM
C[C@H]1CCN1c1nc2c(c(-c3cccc(CNC(=O)CO)c3)n1)CCC2 [Example 231, 2-hydroxy-N-[[3-[2-[(2S)-2-methylazetidin-1-yl]-6,7-dihydro-5H-cyclopenta[d]pyrimidin-4-yl]phenyl]methyl]acetamide] | 199 nM | 50.6 nM | 56.7 nM
C[C@H]1CCN1c1nc2c(c(-c3ccc4ccc(C(=O)O)cc4c3)n1)CCC2 [Example 232, 7-[2-[(2S)-2-methylazetidin-1-yl]-6,7-dihydro-5H-cyclopenta[d]pyrimidin-4-yl]naphthalene-2-carboxylic acid] | 1630 nM | 44.8 nM | 46.1 nM

Compound | EC50 [1] | IC50 (human KHK-C) | IC50 (human KHK-A)
C[C@H]1CCN1c1nc2c(c(-c3ccc4c(c3)S(=O)(=O)CNC4=O)n1)CCC2 [Example 234, 7-[2-[(2S)-2-methylazetidin-1-yl]-6,7-dihydro-5H-cyclopenta[d]pyrimidin-4-yl]-1,1-dioxo-2,3-dihydro-1lambda6,3-benzothiazin-4-one] | 56.4 nM | 18.9 nM | 39.1 nM
CO[C@@H]1CN(c2nc3c(c(-c4ccc(C(N)=O)cc4)n2)CCC3)[C@H]1C [Example 235, 4-(2-((2S,3R)-3-methoxy-2-methylazetidin-1-yl)-6,7-dihydro-5H-cyclopenta[d]pyrimidin-4-yl)benzamide] | > 5000 nM | > 5000 nM | > 5000 nM
C[C@H]1CCN1c1nc2c(c(-c3ccc4c(c3)C(=O)NC4=O)n1)CCC2 [Example 240, 5-[2-[(2S)-2-methylazetidin-1-yl]-6,7-dihydro-5H-cyclopenta[d]pyrimidin-4-yl]isoindoline-1,3-dione] | 4980 nM | 173 nM | 183 nM
C[C@H]1CCN1c1nc2c(c(-c3cccc(CC(N)=O)c3)n1)CCC2 [Example 244, 2-[3-[2-[(2S)-2-methylazetidin-1-yl]-6,7-dihydro-5H-cyclopenta[d]pyrimidin-4-yl]phenyl]acetamide] | 102 nM | 67.8 nM | 149 nM
C[C@H]1CCN1c1nc2c(c(-c3ccc(CC(N)=O)cc3)n1)CCC2 [Example 245, 2-[4-[2-[(2S)-2-methylazetidin-1-yl]-6,7-dihydro-5H-cyclopenta[d]pyrimidin-4-yl]phenyl]acetamide] | 374 nM | 80.3 nM | 73.6 nM
C[C@H]1CCN1c1nc2c(c(-c3cccc(C(N)C(F)(F)F)c3)n1)CCC2 (stereo partly drawn) [Example 246, 2,2,2-trifluoro-1-[3-[2-[(2S)-2-methylazetidin-1-yl]-6,7-dihydro-5H-cyclopenta[d]pyrimidin-4-yl]phenyl]ethanamine] | 422 nM | 163 nM | 360 nM
C[C@H]1CCN1c1nc2c(c(-c3ccc4[nH]c(=O)[nH]c4c3)n1)CCC2 [Example 247, 5-[2-[(2S)-2-methylazetidin-1-yl]-6,7-dihydro-5H-cyclopenta[d]pyrimidin-4-yl]-1,3-dihydrobenzimidazol-2-one] | 107 nM | 49.6 nM | 50 nM
C[C@H]1CCN1c1nc2c(c(-c3ccc4c(c3)CC(=O)N4)n1)CCC2 [Example 248, 5-[2-[(2S)-2-methylazetidin-1-yl]-6,7-dihydro-5H-cyclopenta[d]pyrimidin-4-yl]indolin-2-one] | 154 nM | > 100 nM | 79.6 nM
C[C@H]1CCN1c1nc2c(c(-c3ccc(C45CC(C(=O)O)(C4)C5)cc3)n1)CCC2 [Example 249, 3-[4-[2-[(2S)-2-methylazetidin-1-yl]-6,7-dihydro-5H-cyclopenta[d]pyrimidin-4-yl]phenyl]bicyclo[1.1.1]pentane-1-carboxylic acid] | 517 nM | 96.3 nM | 105 nM
C[C@H]1CCN1c1nc2c(c(-c3ccc(C45CC(C(N)=O)(C4)C5)cc3)n1)CCC2 [Example 250, 3-[4-[2-[(2S)-2-methylazetidin-1-yl]-6,7-dihydro-5H-cyclopenta[d]pyrimidin-4-yl]phenyl]bicyclo[1.1.1]pentane-1-carboxamide] | 852 nM | 129 nM | 196 nM
C[C@H]1CCN1c1nc2c(c(-c3ccc4[nH]c(=O)n(C)c4c3)n1)CCC2 [Example 251, 3-methyl-5-[2-[(2S)-2-methylazetidin-1-yl]-6,7-dihydro-5H-cyclopenta[d]pyrimidin-4-yl]-1H-benzimidazol-2-one] | 243 nM | 135 nM | 126 nM
C[C@H]1CCN1c1nc2c(c(-c3ccc(C4(C(N)=O)CC4)cc3)n1)CCC2 [Example 252, 1-[4-[2-[(2S)-2-methylazetidin-1-yl]-6,7-dihydro-5H-cyclopenta[d]pyrimidin-4-yl]phenyl]cyclopropanecarboxamide] | 1670 nM | 946 nM | 783 nM
C[C@H]1CCN1c1nc2c(c(-c3cccc(C4(C(=O)O)CC4)c3)n1)CCC2 [Example 253, 1-[3-[2-[(2S)-2-methylazetidin-1-yl]-6,7-dihydro-5H-cyclopenta[d]pyrimidin-4-yl]phenyl]cyclopropanecarboxylic acid] | 2770 nM | 239 nM | 204 nM
C[C@H]1CCN1c1nc2c(c(-c3cccc(C4(C(N)=O)CC4)c3)n1)CCC2 [Example 254, 1-[3-[2-[(2S)-2-methylazetidin-1-yl]-6,7-dihydro-5H-cyclopenta[d]pyrimidin-4-yl]phenyl]cyclopropanecarboxamide] | 607 nM | 517 nM | 600 nM
C[C@H]1CCN1c1nc2c(c(-c3ccc(C(O)C4(C#N)CC4)cc3)n1)CCC2 (stereo partly drawn) [Example 255, 1-[hydroxy-[4-[2-[(2S)-2-methylazetidin-1-yl]-6,7-dihydro-5H-cyclopenta[d]pyrimidin-4-yl]phenyl]methyl]cyclopropanecarbonitrile] | 70.7 nM | 65.9 nM | 49.8 nM
